Key:
anti-8EPGF2 IgG [1] = assay: specificity / cross-reactivity of anti-8EPGF2 IgG (competitive ELISA); type: binding, goat; conditions: for cross-reaction with anti-8EPGF2 IgG (in words) / cross-reaction with anti-8EPGF2 IgG: 8EPGF2 ELISA
Description: The IgG bound to the protein G column was eluted with 50 mM glycine-HCl buffer, pH 2.5, and immediately neutralized with 0.5M Tris-HCl, pH 7.6.
High-binding strip well microplates (Labsystems, Inc., Marlboro, Ma.) were coated with protein G-purified IgG suspended in 1M carbonate, pH 9.0, (1 μg/well; 200 μL/well final volume) and then covered with parafilm. After overnight incubation at room temperature, the wells were gently washed five times with tris buffered saline (TBS), pH 7.5, containing 0.1% tween. Non-specific sites were blocked by the addition of 0.2 mL of 5% (w/v) nonfat dry milk in TBS. After 2 hours of incubation at room temperature, the plates were washed three times with TBS-tween. […] Following incubation for 1 hour to permit competitive binding to bound antibody, unbound material was removed by thoroughly washing the wells with TBS-tween and 150 μL of a calorimetric substrate for HRP [3,3',5,5'tetramethylbenzidine (TMB) with hydrogen peroxide] (ELISA Technologies) was added. After incubation of the plate for 20 minutes, the reaction is stopped by addition of 75 μL of 1N H2 SO4, and the absorbance at 450 nm determined using a microtiter plate reader. Under these assay conditions, the amount of color in a well is inversely proportional to the initial concentration of the sample or standard ligand.

anti-8EPGF2 IgG [2] = assay: immunoaffinity column retention of 8EPGF2 on anti-8EPGF2 IgG resin; type: binding, goat; conditions: up to 10 ng 8EPGF2 applied
Description: Reacti-gel was obtained from Pierce Co. and anti-8EPGF2 immunoaffinity column was prepared according to the manufacturer's instruction. […] In each experiment samples were diluted to concentrations lower than the capacity of the column (~0.5 ng/100 μL) prior to application to the column.
Urine samples were applied to immunoaffinity columns, which were then eluted with acetonitrile:water (1:3), followed by acetone:water (90:10). The eluates were then processed and analyzed using the standard GC/MS protocol as described herein above. […] PGF2α has a slightly longer retention time than the [^2 H4 ]-PGF2α (the internal control) shown in the bottom chromatograms of FIG. 4A and 4B, because protium runs faster than deuterium on GC [Wendelborn et al, 1990]. The six peaks with m/z=569 are numbered by the order of elution and the elution time of each peak was divided by the elution time of internal standard, [^2 H4 ]-PGF2α, obtained at m/z=573 to calculate relative elution time of each peak. […] The identity of Peak I, II, III, and VI is not known.

vasoconstriction = conditions: cited from earlier work
[3] = aqueous solution, non-enzymatic rearrangement to PGD2 and PGE2; cited from earlier work

SMILES	cross-reaction with anti-8EPGF2 IgG (in words) (anti-8EPGF2 IgG [1])	further results
CCCCC[C@H](O)/C=C/[C@@H]1[C@H](C/C=C\CCCC(=O)O)[C@@H](O)C[C@H]1O [8EPGF2, 8-epi-prostaglandin F2α]	–	recognition by anti-8EPGF2 antibody (in words) (anti-8EPGF2 IgG [1]; polyclonal antibody, ELISA): recognized; applied 8EPGF2 bound to antibody cross-linked to resin (anti-8EPGF2 IgG [2]): higher than 98%; unbound 8EPGF2 (anti-8EPGF2 IgG [2]; 100 μl resin): lower than 2%; vasoconstrictor property (in words) (vasoconstriction): vasoconstrictor property; effect of high serum concentration on renal arteries (in words) (vasoconstriction; hepatorenal syndrome patients): intense vasoconstriction of renal arteries
CCCCC[C@H](O)/C=C/[C@@H]1[C@H](CCCCCCC(=O)O)[C@H](O)C[C@H]1O [8-epi-PGF1β]	did not cross-react	–
CCCCC[C@H](O)/C=C/[C@@H]1[C@@H](C/C=C\CCCC(=O)O)[C@@H](O)C[C@@H]1O [9α-11β-PGF2]	–	cross-reaction with anti-8EPGF2 IgG (anti-8EPGF2 IgG [1]): 4.1%
CCCCC[C@H](O)/C=C/[C@@H]1[C@@H](C/C=C\CCCC(=O)O)[C@H](O)C[C@H]1O [9β-11α-PGF2α]	did not cross-react	–
CCCCC[C@H](O)/C=C/[C@@H]1[C@@H](CC(=O)CCCCC(=O)O)[C@@H](O)C[C@H]1O [6-keto-PGF1α]	did not cross-react	–
CCCCC[C@H](O)/C=C/[C@H]1C(=O)C[C@H](O)[C@@H]1C/C=C\CCCC(=O)O [PGD2]	did not cross-react	–
CCCCC[C@H](O)/C=C/[C@@H]1[C@@H](C/C=C\CCCC(=O)O)[C@@H](O)C[C@H]1O [PGF2α]	did not cross-react	–
CCCCC[C@H](O)/C=C/[C@@H]1[C@@H](CCCCCCC(=O)O)[C@H](O)C[C@H]1O [PGF1β]	did not cross-react	–
CCCCC[C@H](O)CC[C@@H]1[C@@H](CCCCCCC(=O)O)[C@@H](O)C[C@H]1O [13,14-dihydro-PGF1α]	did not cross-react	–
CCCCC[C@H](O)/C=C/[C@H]1[C@H](O)CC(=O)[C@@H]1C/C=C\CCCC(=O)O [prostaglandin E2]	did not cross-react	–
CCCCCC(=O)CC[C@@H]1[C@@H](CCCCCCC(=O)O)[C@@H](O)C[C@H]1O [13-14-dihydro-15-keto-PGF1α]	did not cross-react	–
CCCCC[C@H](O)/C=C/[C@@H]1[C@H](CCCCCCC(=O)O)[C@@H](O)C[C@H]1O [8-epi-PGF1α, 5,6-dihydro-8-iso-PGF2α]	did not cross-react	–
CCCCC/C=C\C/C=C\C/C=C\C/C=C\CCCC(=O)O [arachidonic acid]	did not cross-react	–
CCCCC[C@@H](/C=C/[C@@H]1[C@@H](C/C=C\CCCC(=O)O)[C@@H]2C[C@H]1OO2)OO [prostaglandin G2]	–	t1/2 [3]: ~ 5 minutes
CCCCCC(=O)CC[C@@H]1[C@@H](C/C=C\CCCC(=O)O)[C@@H](O)C[C@H]1O [13-14-dihydro-15-keto-PGF2α]	–	cross-reaction with anti-8EPGF2 IgG (anti-8EPGF2 IgG [1]): 3%
CCCCC[C@H](O)/C=C/[C@@H]1[C@@H](CCCCCCC(=O)O)[C@H](O)C[C@@H]1O [11β-PGF1β]	did not cross-react	–
CCCCC[C@H](O)/C=C/[C@@H]1[C@@H](C/C=C\CCCC(=O)O)[C@@H]2C[C@H]1OO2 [prostaglandin H2]	–	t1/2 [3]: ~ 5 minutes

From US5891622A, “Assessment of oxidative stress in vivo” (Oxford Biomedical Research, Inc., priority 1998, dated 1999)
